Source: patent publication US8975086B2, “Method for treating or preventing bladder cancer using the DEPDC1 polypeptide” (OncoTherapy Science, Inc., priority 2008, dated 2015)
One block for each compound: values may come before it. Where a SMILES comes first, the peptide text is derived from it.

Key:
[1] = target: T1, DEPDC1-ZNF224 complex (Homo sapiens, UniProt Q9NZL3, H562R/M118V); experiment: Immunoprecipitation of exogenous DEPDC1-HA and ZNF224-FLAG complex in peptide-treated COS7 cells; type: cell-based; settings: for complex formation between exogenously expressed DEPDC1-HA and ZNF224-Flag (immunoprecipitation): six peptides added 6 hours after transfection, immunoprecipitation fifteen hours later
T1 construct: expressed in transfected cells; host or cells: COS7 cells, transiently co-transfected (pCAGGS-type vectors)
T1 sequence (Q9NZL3 whole entry M118V/H562R, one chain of several): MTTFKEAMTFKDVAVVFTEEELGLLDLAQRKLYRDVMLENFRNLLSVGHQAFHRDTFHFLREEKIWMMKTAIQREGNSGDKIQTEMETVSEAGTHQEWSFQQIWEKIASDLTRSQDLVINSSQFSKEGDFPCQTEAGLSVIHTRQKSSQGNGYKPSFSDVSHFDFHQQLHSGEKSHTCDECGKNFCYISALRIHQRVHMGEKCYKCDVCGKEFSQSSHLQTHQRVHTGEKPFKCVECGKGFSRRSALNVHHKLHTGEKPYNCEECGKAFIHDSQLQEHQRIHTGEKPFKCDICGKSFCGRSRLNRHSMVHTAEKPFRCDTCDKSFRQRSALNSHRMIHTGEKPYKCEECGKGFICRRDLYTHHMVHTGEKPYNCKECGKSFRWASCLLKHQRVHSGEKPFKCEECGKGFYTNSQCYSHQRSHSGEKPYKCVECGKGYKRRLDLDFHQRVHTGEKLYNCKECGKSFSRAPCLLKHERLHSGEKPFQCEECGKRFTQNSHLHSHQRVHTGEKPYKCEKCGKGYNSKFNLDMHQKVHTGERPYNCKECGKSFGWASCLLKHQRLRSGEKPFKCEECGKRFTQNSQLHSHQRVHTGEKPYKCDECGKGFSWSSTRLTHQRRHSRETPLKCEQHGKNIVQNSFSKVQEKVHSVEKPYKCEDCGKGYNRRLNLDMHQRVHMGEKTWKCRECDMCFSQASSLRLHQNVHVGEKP
Description: To confirm the interaction between DEPDC1 and ZNF224 in bladder cancer cells and identify the ZNF224-binding region in DEPDC1, the immunoprecipitation experiment was carried out as follows. First, it was confirmed interaction between endogenous DEPDC1 and exogenous ZNF224 by immunoprecipitation experiments using anti-DEPDC1 polyclonal antibody for immunoprecipitation and anti-FLAGM2 antibody (Amersham) for immunoblotting. To further determine the ZNF224-binding region in DEPDC1, it was cloned six partial constructs of DEPDC1 (DEPDC11-147, DEPDC1141-300, DEPDC1177-597, DEPDC1300-669, DEPDC1587-740 and DEPDC1654-811) into appropriate sites of COOH-terminal HA-tagged pCAGGS vector. The nucleotide sequence of each clones were determined with an ABI Prism 3700 DNA sequencer (Applied Biosystems, Foster City, Calif.), using each primer. Cell extracts from Cos7 cell line, transfected with each of plasmids expressing one of these six partial segments of DEPDC1, were precleared by incubation at 4 degrees C. for 1 hour with 100 micro 1 of protein G-agarose beads in final volumes of 2 mL of immunoprecipitation buffer (0.5% NP40, 50 mmol/L Tris-HCl, 150 mmol/L NaCl) in the presence of proteinase inhibitor. After centrifugation at 1,000 rpm for 5 minutes at 4 degrees C., the supernatants were incubated at 4 degrees C. with anti-HA rat for 1 hours. After the beads were collected from each sample by centrifugation at 5,000 rpm for 2 minutes and washed six times with 1 mL of immunoprecipitation buffer, the washed beads were re-suspended in 50 uL of Laemmli sample buffer and boiled for 3 minutes before the proteins were separated on 10% SDS-PAGE gels. Immunoblot was done using anti-HA rat antibody and anti-FLAGM2 monoclonal antibody, respectively (Sigma-Aldrich Co., St. Louis, Mo.).
To examine the effect of these polyarginine (11R)-linked peptides on inhibition of the DEPDC1-ZNF224 complex formation, they were co-transfected with DEPDC1 and ZNF224 constructs into COS7 cells. […] Immunoprecipitation were performed according to methods as described in “Identification of the ZNF224-binding regions in DEPDC1 protein” section.

[2] = test system: NHDF-Ad cells; experiment: MTT assay of cell viability of normal human dermal fibroblasts treated with peptide; type: cell-based; settings: DEPDC1 and ZNF224 hardly detectable
Description: (§1) UM-UC-3 and normal human dermal fibroblast-derived NHDF-Ad cell lines were incubated with the 11R peptides at the concentration of 0, 1, 2, or 3 micromol/L for 5 days. Each peptide was added at every 24 hours at the appropriate concentrations and the viability of cells was evaluated by MTT assay at every day after the treatment.
(§2) To examine the effect of DEPDC1611-628 peptide on cell growth of UM-UC-3 and NHDF cells, the cells were incubated with the DEPDC1611-628 or scramble peptides at the concentration of 0, 1, 2, or 3 micro M for 5 days, respectively. Each peptide was added at every 24 hours at the appropriate concentrations and the viability of cells was evaluated by MTT assay every day. Absorbance at 570 nm wavelength was measured with a Microplate Reader 550 (Bio-Rad). These experiments were performed in triplicate.

[3] = test system: UM-UC-3 cells; experiment: MTT assay of cell viability of UM-UC-3 bladder cancer cells treated with 11R peptides; type: cell-based, human; settings: UM-UC-3 cells; peptide 1, 2 or 3 micro M added every 24 hours for 5 days
Description: as §1, §2

[4] = test system: DLG1; experiment: Quantitative RT-PCR of downstream gene DLG1 in UM-UC-3 cells; type: cell-based, human; settings: UM-UC-3 cells transfected with siRNA, compared with siEGFP
Description: (§3) UM-UC-3 cells were transfected with siRNA against DEPDC1 (si-DEPDC1), ZNF224 (si-ZNF224-2) or EGFP (control siRNA). The target sequences of the synthetic oligo-duplex for siRNA against DEPDC1 (Sigma Aldrich) were as follows: si-DEPDC1,5′-CCAAAGUUCCGUAGUCUAA-3′(SEQ ID NO: 75), ZNF224 (si-ZNF224-2) or EGFP as described in “RNA interference assay” section.
(§4) Total RNAs were extracted from each sample at 12 hours and 24 hours after the transfection, labeled with Cy5 (for si-DEPDC1- and si-ZNF224-2-transfected cells) or Cy3 (for si-EGFP-transfected cells), and subjected to cohybridization onto cDNA microarrayslides containing 36468 cDNA or ESTs as described previously (Takata R, et al., Clin Cancer Res 2005 11:2625-36). After normalization of the data, it was excluded genes from further analysis when Cy5 and Cy3 dyes yielded signals intensities lower than the cut-off value. For other genes, the Cy5/Cy3 ratio was calculated using the raw data of each samples. […] Validation of candidate downstream genes of both DEPDC1 and ZNF224 was carried out with quantitative RT-PCR analysis using the SYBR green dye (Rhoche) and the same amplified RNAs from UM-UC-3 cells used for cDNA microarray experiments, with each gene-specific primer as follows;
(§5) All experiments were performed in duplicate. The calculated quantity of the target gene for each sample was then divided by the average calculated quantity of beta 2-microglobulin (beta 2-MG) corresponding to each sample to give a relative expression of the target gene for each sample

[5] = test system: A20 (TNFAIP3); experiment: Quantitative RT-PCR of downstream gene A20 in UM-UC-3 cells; type: cell-based, human; settings: UM-UC-3 cells transfected with siRNA, compared with siEGFP
Description: as §3
as §4, with “After normalization of the data, it was excluded genes from further analysis when Cy5 and Cy3 dyes yielded signals intensities lower than the cut-off value.” left out
as §5

Compound: RRRRRRRRRRR-GGG-PKRHGLHLSQENGEKIKHE (RRRRRRRRRRRGGGPKRHGLHLSQENGEKIKHE; An artificially synthesised dominant negative peptide) [11R-DEP148-166, 11R-linked DEPDC1 codons 148-166 peptide]
complex formation between exogenously expressed DEPDC1-HA and ZNF224-Flag (immunoprecipitation) [1]: no inhibition

Compound: CC[C@H](C)[C@H](NC(=O)[C@H](CCSC)NC(=O)[C@H](CCCNC(=N)N)NC(=O)[C@H](CCSC)NC(=O)[C@H](CC(C)C)NC(=O)[C@H](CC(C)C)NC(=O)[C@H](CCC(N)=O)NC(=O)[C@H](CC(C)C)NC(=O)[C@H](CCCCN)NC(=O)[C@H](CCCNC(=N)N)NC(=O)[C@H](CCCNC(=N)N)NC(=O)[C@H](CC(N)=O)NC(=O)[C@@H]1CCCN1C(=O)[C@@H]1CCCN1C(=O)CNC(=O)CNC(=O)CNC(=O)[C@H](CCCNC(=N)N)NC(=O)[C@H](CCCNC(=N)N)NC(=O)[C@H](CCCNC(=N)N)NC(=O)[C@H](CCCNC(=N)N)NC(=O)[C@H](CCCNC(=N)N)NC(=O)[C@H](CCCNC(=N)N)NC(=O)[C@H](CCCNC(=N)N)NC(=O)[C@H](CCCNC(=N)N)NC(=O)[C@H](CCCNC(=N)N)NC(=O)[C@H](CCCNC(=N)N)NC(=O)[C@@H](N)CCCNC(=N)N)C(=O)N[C@@H](CO)C(=O)N[C@@H](CCCNC(=N)N)C(=O)N[C@@H](CCSC)C(=O)N[C@@H](CO)C(=O)O [11R-DEP611-628, RRRRRRRRRRR-GGG-PPNRRKLQLLMRMISRMS] (H-RRRRRRRRRRRGGGPPNRRKLQLLMRMISRMS-OH)
cell viability measured by MTT assay [2]: no significant effect on cell viability
cell viability measured by MTT assay ([2]; listed as DEPDC1611-628): no off-target effect

Compound: 5′-CCAAAGUUCCGUAGUCUAA-3′ [si-DEPDC1]
DLG1 transcript (quantitative RT-PCR) [4]: time-dependent increase
A20 transcript (quantitative RT-PCR) [5]: time-dependent increase

Continued, in another order:

complex formation between exogenously expressed DEPDC1-HA and ZNF224-Flag (immunoprecipitation) [1]: no inhibition
Compound: RRRRRRRRRRR-GGG-LHDAMGTRSLMIHTFSRC (RRRRRRRRRRRGGGLHDAMGTRSLMIHTFSRC; An artificially synthesised dominant negative peptide) [11R-DEP636-653, 11R-linked DEPDC1 codons 636-653 peptide]

complex formation of DEPDC1-HA and ZNF224-FLAG (immunoprecipitation) ([1]; four peptides at 3 micro M added 6 hours after transfection, twenty-four hours later): moderate effect
complex formation between exogenously expressed DEPDC1-HA and ZNF224-Flag (immunoprecipitation) [1]: slight inhibition
Compound: RRRRRRRRRRR-GGG-AIDALQLCCLLLPPPNRR (RRRRRRRRRRRGGGAIDALQLCCLLLPPPNRR; An artificially synthesised dominant negative peptide) [11R-DEP598-615, 11R-linked DEPDC1 codons 598-615 peptide]
cell viability measured by MTT assay [3]: moderate suppress in cell viability in dose-dependent manner
